{"source": "patent US10561697B2", "about": "“Compositions based on saffron for the prevention and/or treatment of degenerative eye disorders” (Hortus Novus SRL, priority 2014, dated 2020)", "origin": "cited, not measured here", "key": {"rats exposed to light": {"test_system": "rats exposed to light", "conditions": "diet added with 0.2% of curcumin"}, "[1]": {"test_system": "rats affected by the P23H mutation in the rhodopsin gene", "conditions": "100 mg/kg"}}}
{"smiles": "COc1cc(/C=C/C(=O)CC(=O)/C=C/c2ccc(O)c(OC)c2)ccc1O", "note": "[curcumin]", "values": [{"measurement": "onset of retinal oxidative and inflammatory stress", "setting": "rats exposed to light", "result": "reduction in the onset of retinal oxidative and inflammatory stress"}, {"measurement": "formation of rhodopsin aggregates", "setting": "[1]", "result": "active in inhibiting the formation of rhodopsin aggregates"}, {"measurement": "morphology of the retina, photoreceptors preservation", "setting": "[1]; transgenic rats", "result": "improvement in the morphology of the retina"}]}
